Data on one compound can be found in article PMC5309861, “Mechanistic insight into the substrate specificity of 1,2-β-oligoglucan phosphorylase from Lachnoclostridium phytofermentans” (Scientific Reports, 2017).

The target in the test is T1, LpSOGP (Lachnoclostridium phytofermentans, UniProt A9KJS6).
T1 construct: gene Cphy_0694
T1 sequence (A9KJS6 1-1113): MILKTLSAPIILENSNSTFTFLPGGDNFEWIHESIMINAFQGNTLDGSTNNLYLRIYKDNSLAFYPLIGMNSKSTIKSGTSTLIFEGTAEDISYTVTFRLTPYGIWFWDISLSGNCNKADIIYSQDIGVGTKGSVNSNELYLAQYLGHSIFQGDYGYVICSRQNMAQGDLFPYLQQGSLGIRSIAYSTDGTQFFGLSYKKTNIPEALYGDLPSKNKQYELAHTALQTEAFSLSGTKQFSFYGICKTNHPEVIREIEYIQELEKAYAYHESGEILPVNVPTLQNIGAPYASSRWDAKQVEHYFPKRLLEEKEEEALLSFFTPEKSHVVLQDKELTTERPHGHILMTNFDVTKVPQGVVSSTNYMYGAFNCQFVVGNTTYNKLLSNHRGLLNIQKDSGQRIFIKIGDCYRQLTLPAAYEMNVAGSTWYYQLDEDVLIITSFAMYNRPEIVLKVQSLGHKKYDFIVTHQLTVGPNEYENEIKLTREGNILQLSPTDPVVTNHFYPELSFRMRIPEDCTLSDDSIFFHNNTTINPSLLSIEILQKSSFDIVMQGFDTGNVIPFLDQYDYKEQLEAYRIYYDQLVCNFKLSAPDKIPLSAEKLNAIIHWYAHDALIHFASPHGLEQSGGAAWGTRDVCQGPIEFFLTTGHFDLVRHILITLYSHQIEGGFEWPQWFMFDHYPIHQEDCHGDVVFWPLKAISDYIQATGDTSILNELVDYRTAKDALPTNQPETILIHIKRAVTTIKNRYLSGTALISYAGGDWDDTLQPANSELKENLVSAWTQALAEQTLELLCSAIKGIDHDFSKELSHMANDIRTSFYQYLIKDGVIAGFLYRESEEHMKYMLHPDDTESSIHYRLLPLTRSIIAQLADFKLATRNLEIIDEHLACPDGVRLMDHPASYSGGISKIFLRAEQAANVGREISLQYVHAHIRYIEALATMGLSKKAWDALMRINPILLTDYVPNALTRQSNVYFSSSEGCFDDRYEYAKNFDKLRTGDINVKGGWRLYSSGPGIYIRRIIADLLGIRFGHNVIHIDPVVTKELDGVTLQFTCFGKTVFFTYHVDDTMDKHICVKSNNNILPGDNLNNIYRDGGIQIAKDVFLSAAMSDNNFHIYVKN
The settings on record: phosphorolysis; pH 7.5, 30 °C; co-substrate oligosaccharide not stated. The source says:
G1P release, coupled phosphoglucomutase / G6PDH assay, Michaelis-Menten fit on LpSOGP

For the compound `O=P(O)(O)O` [Pi, inorganic phosphate], the “Synthesis / kcat/Km / (s^-1 mM^-1)” value was 11 ± 1 mM.
